The text below walks through data of patent US6926936B2, “Ink-jet recording sheet with improved ozone resistance” (Felix Schoeller Jr. Foto-und Spezialpapiere GmbH & Co. KG, priority 2002, dated 2005).

The data set in a line: Dissociation constant (Kb, pKb) of the water-soluble compounds.

Excerpt: The following aqueous solutions were applied onto the dye-fixing layer.

For the molecule `O.O.O.O.O.O.O.O.O.[Na+].[Na+].[Na+].[S-]c1nc([S-])nc([S-])n1` [Trisodium trithiocyanurate nonahydrate], the pKb – broadly, the Kb on a negative log10 scale, so that one unit is a factor of ten – worked out at 3. For the same molecule, the Kb (dissociation constant) is given as 1 × 10^−3. Take `O=C([O-])c1ccc(O)cc1.[Na+]` [4-Hydroxybenzoic acid Na salt]: the pKb stood at 12.1.
